Experiment: Solubility determination of saturated solutions (shaking 24 h at 25 °C, filtration, HPLC/UPLC-UV quantification)
Type: physicochemical
Conditions: for log(x1)exp: 1,4-dioxane + Water, code 1 (this work)
Method: In the case of binary mixtures, the organic solvent was mixed with water in appropriate molar fractions. Water was also used as a single-component solvent. For each system, three replicate samples were prepared.
The prepared samples were placed in an Orbital Shaker ES-20/60 incubator from Biosan (Riga, Latvia) and shaken for 24 h at 25 °C. The temperature was maintained with an accuracy of ±0.1 °C. During the equilibration process, the samples were agitated at a rate of 60 rpm while being thermostated.
Following equilibration, the samples were filtered through PTFE syringe filters with a 0.22 µm pore size. To prevent precipitation during this step, all test tubes, syringes, and filters were preheated to the corresponding temperature of the solution. Subsequently, an aliquot of the filtrate was transferred to a vial for chromatographic analysis.
Prior to injection, samples were diluted with methanol and injected into a Luna C18 column (250 × 10 mm) equipped with a guard column, both from Phenomenex (Torrance, CA, USA). The injection volume was 100 µL, and the column temperature was maintained at 30 °C. The mobile phase consisted of 0.5% acetic acid (A) and acetonitrile (B), applied with a linear gradient at a flow rate of 5 mL/min: initially 2% B; 1–7 min, 2–50% B; 7–9 min, 50% B; 9–9.5 min, 50–2% B; and 9–18 min, 2% B. The UV absorbance was monitored in the range of 210–400 nm. The chromatographic system was operated with MassLynx 4.1 software (Waters, […], USA). Quantitative analysis was performed using the TargetLynx application at 293 nm. All samples were analyzed in triplicate (technical replicates).
The system included the Acquity Binary Solvent Manager, Acquity Sample Manager, and Acquity Column Manager (Waters, Milford, CT, USA). Prior to analysis, samples were diluted with methanol, and 0.3 µL was injected. Separation was performed on a ACQUITY UPLC CSH C18 column (1.7 µm, 2.1 × 30 mm, Waters, Milford, CT, USA) maintained at 40 °C. UV detection was carried out at 293 nm using a tunable dual-wavelength UV/Vis detector (TUV, Waters, Milford, CT, USA). […] Each sample was analyzed in three technical replicates.
To calculate mole fractions of the solutes, the density of each saturated solution was determined by weighing 1 mL of the sample using an analytical balance (RADWAG AS 110.R2 PLUS; Radwag, Radom, Poland).

log(x1)exp (x2* 0.00, x3* 1.00, T 25.0 °C): -4.023
log(x1)exp (x2* 0.10, x3* 0.90, T 25.0 °C): -2.614
log(x1)exp (x2* 0.20, x3* 0.80, T 25.0 °C): -1.897
log(x1)exp (x2* 0.30, x3* 0.70, T 25.0 °C): -1.603
log(x1)exp (x2* 0.40, x3* 0.60, T 25.0 °C): -1.455
x1 × 102 (mole fraction of solute) (1,4-dioxane-water, x2* = 0.0, 25 °C): 0.009 mole fraction × 102
x1 × 102 (mole fraction of solute) (1,4-dioxane-water, x2* = 0.1, 25 °C): 0.243 mole fraction × 102
x1 × 102 (mole fraction of solute) (1,4-dioxane-water, x2* = 0.2, 25 °C): 1.269 mole fraction × 102
x1 × 102 (mole fraction of solute) (1,4-dioxane-water, x2* = 0.3, 25 °C): 2.495 mole fraction × 102
x1 × 102 (mole fraction of solute) (1,4-dioxane-water, x2* = 0.4, 25 °C): 3.504 mole fraction × 102
x1 × 102 (mole fraction of solute) (1,4-dioxane-water, x2* = 0.5, 25 °C): 4.260 mole fraction × 102
x1 × 102 (mole fraction of solute) (1,4-dioxane-water, x2* = 0.6, 25 °C): 4.647 mole fraction × 102
x1 × 102 (mole fraction of solute) (1,4-dioxane-water, x2* = 0.7, 25 °C): 4.698 mole fraction × 102
x1 × 102 (mole fraction of solute) (1,4-dioxane-water, x2* = 0.8, 25 °C): 4.232 mole fraction × 102
x1 × 102 (mole fraction of solute) (1,4-dioxane-water, x2* = 0.9, 25 °C): 2.850 mole fraction × 102
x1 × 102 (mole fraction of solute) (1,4-dioxane-water, x2* = 1.0, 25 °C): 1.634 mole fraction × 102
mole fraction solubility (x1) (1,4-dioxane–water, x2* = 0.0 (pure water), 25 °C): 9.0 × 10^−5 mole fraction
mole fraction solubility (x1) (1,4-dioxane–water, x2* = 0.7, 25 °C): 4.698 × 10^−2 mole fraction
x1 × 102 (mole fraction of solute) (4-FM-water, x2* = 0.1, 25 °C): 0.785 mole fraction × 102
x1 × 102 (mole fraction of solute) (4-FM-water, x2* = 0.2, 25 °C): 2.306 mole fraction × 102
x1 × 102 (mole fraction of solute) (4-FM-water, x2* = 0.3, 25 °C): 4.043 mole fraction × 102
x1 × 102 (mole fraction of solute) (4-FM-water, x2* = 0.4, 25 °C): 6.072 mole fraction × 102
x1 × 102 (mole fraction of solute) (4-FM-water, x2* = 0.5, 25 °C): 7.935 mole fraction × 102
x1 × 102 (mole fraction of solute) (4-FM-water, x2* = 0.6, 25 °C): 10.036 mole fraction × 102
x1 × 102 (mole fraction of solute) (4-FM-water, x2* = 0.7, 25 °C): 11.977 mole fraction × 102
x1 × 102 (mole fraction of solute) (4-FM-water, x2* = 0.8, 25 °C): 13.855 mole fraction × 102
x1 × 102 (mole fraction of solute) (4-FM-water, x2* = 0.9, 25 °C): 15.930 mole fraction × 102
x1 × 102 (mole fraction of solute) (4-FM-water, x2* = 1.0, 25 °C): 17.932 mole fraction × 102
x1 × 102 (mole fraction of solute) (DMSO-water, x2* = 0.1, 25 °C): 0.209 mole fraction × 102
x1 × 102 (mole fraction of solute) (DMSO-water, x2* = 0.2, 25 °C): 1.527 mole fraction × 102
x1 × 102 (mole fraction of solute) (DMSO-water, x2* = 0.3, 25 °C): 4.718 mole fraction × 102
x1 × 102 (mole fraction of solute) (DMSO-water, x2* = 0.4, 25 °C): 11.316 mole fraction × 102
x1 × 102 (mole fraction of solute) (DMSO-water, x2* = 0.5, 25 °C): 20.824 mole fraction × 102
x1 × 102 (mole fraction of solute) (DMSO-water, x2* = 0.6, 25 °C): 28.915 mole fraction × 102
x1 × 102 (mole fraction of solute) (DMSO-water, x2* = 0.7, 25 °C): 33.598 mole fraction × 102
x1 × 102 (mole fraction of solute) (DMSO-water, x2* = 0.8, 25 °C): 34.931 mole fraction × 102
x1 × 102 (mole fraction of solute) (DMSO-water, x2* = 0.9, 25 °C): 31.904 mole fraction × 102
x1 × 102 (mole fraction of solute) (DMSO-water, x2* = 1.0, 25 °C): 22.675 mole fraction × 102
mole fraction solubility (x1) (DMSO–water, x2* = 0.8, 25 °C): 34.931 × 10^−2 mole fraction
mole fraction solubility (x1) (pure 1,4-dioxane (x2* = 1.0), 25 °C): 1.634 × 10^−2 mole fraction
mole fraction solubility (x1) (pure 4-FM (4-formylmorpholine, x2* = 1.0), 25 °C): 17.932 × 10^−2 mole fraction
mole fraction solubility (x1) (pure DMSO, 25 °C): 22.675 × 10^−2 mole fraction
Compound: O=C(O)/C=C/c1ccc(O)c(O)c1 [caffeic acid, Caffeic acid]

Source: publication PMC12655719, “Evaluating the Effectiveness of Reference Solvent Solubility Calculations for Binary Mixtures Based on Pure Solvent Solubility: The Case of Phenolic Acids” (Molecules, 2025)
